The values that follow come from patent US20210219542A1, “COMPOSITIONS AND METHODS FOR STORAGE OF RED BLOOD CELLS” (THE REGENTS OF THE UNIVERSITY OF COLORADO, A BODY CORPORATE, priority 2018, published 2021).

Test [1] relates to red blood cells (RBC). In words: RBC storage in AS-3 with Ado and/or S1P, LC-MS metabolomics of cells and supernatants. The test is classed as cell-based. Particulars: for amount of hypoxanthine in RBC and supernatants / 2,3-DPG levels / ATP production / oxidized glutathione levels / reduced glutathione levels: RBC-AS-3 stored at 4° C.; for amount of hypoxanthine in RBC and supernatants: at least up to a concentration less than 100 μM, at which point Ado becomes a substrate for hypoxanthine production, FIG. 5; for 2,3-DPG levels: first two weeks of storage, FIG. 2; for ATP production: first week of storage, FIG. 3; for oxidized glutathione levels / reduced glutathione levels: supplemented conditions, FIG. 4; for glycolytic activity as measured by the lactate-to-glucose ratio: RBC-AS-3 suspension stored at 4° C., Ado 0.1-100 μM or S1P 1-10 μM or both, versus unsupplemented storage, FIG. 1. How it is done:
RBC Storage: To ensure sterility, all storage conditions were set up and subsequently sampled in a biosafety cabinet. The RBC-AS-3 suspension was carefully removed from the bag into 3 ml aliquots inside 15 ml conical tubes. Stock concentrations (formulated in house-made AS-3) of ^13C5-Ado or d7-S1P were diluted to final concentrations of 0.1, 1, 10, and 100 μM for Ado or 1, 5, and 10 μM for S1P. Also included was a storage condition consisting of 10 Ado+5 μM S1P. […] The tubes were gently mixed and placed at 4° C. for storage. On days 2, 8, 11, 15, 22, 29, and 43, the tubes were placed back in a biosafety cabinet and 300 μl were sampled. The tubes were placed back at 4° C., and the samples were centrifuged for 10 minutes at 1500 g, 4° C. Supernatants were separated from cells and frozen until analysis (1st analysis after day 22 sampling). LC-MS Metabolomics: Metabolomics analyses were performed as previously described (Nemkov et al. (2015) Amino Acids doi:10.1007/s00726-015-2019-9; Nemkov et al. (2017) Rapid Commun. Mass Spectrom. 31, 663-673). Briefly, samples were placed on ice and diluted with 9 volumes of methanol:acetonitrile:water (5:3:2, v:v) for RBC, or with 24 volumes of methanol:acetonitrile:water (5:3:2, v:v) for supernatants. Suspensions were vortexed continuously for 30 min at 4° C. Insoluble material was removed by centrifugation at 18,000 g for 10 min at 4° C. and supernatants were isolated for metabolomics analysis by UHPLC-MS. The analytical platform employed a Vanquish UHPLC system (Thermo Fisher Scientific, San Jose, Calif., USA) coupled online to a Q Exactive mass spectrometer (Thermo Fisher Scientific, San Jose, Calif., USA). Samples were resolved over a Kinetex C18 column, 2.1×150 mm, 1.7 μm particle size (Phenomenex, Torrance, Calif., USA) equipped with a guard column (SecurityGuard™ Ultracartridge—UHPLC C18 for 2.1 mm ID Columns—AJO-8782—Phenomenex, Torrance, Calif., USA) using an aqueous phase (A) of water and 0.1% formic acid and a mobile phase (B) of acetonitrile and 0.1% formic acid for positive ion polarity mode, or an aqueous phase (A) of 5% acetonitrile and 1 mM ammonium acetate in water and a mobile phase (B) of 95% acetonitrile and 1 mM ammonium acetate in water for negative ion polarity mode. Samples were eluted from the column using a gradient from 5% to 95% B over 1.6 minutes, followed by an isocratic hold at 95% B for 1.65 minutes, flowed at 450 μl/min and 40° C. The Q Exactive mass spectrometer (Thermo Fisher Scientific, San Jose, Calif., USA) was operated independently in positive or negative ion mode, scanning in Full MS mode (2 μscans) from 60 to 900 m/z at 70,000 resolution, with 4 kV spray voltage, 15 shealth gas, 5 auxiliary gas. Calibration was performed prior to analysis using the Pierce™ Positive and Negative Ion Calibration Solutions (Thermo Fisher Scientific). Acquired data was then converted from .raw to .mzXML file format using Mass Matrix (Cleveland, Ohio, USA). Samples were analyzed in randomized order with a technical mixture injected after every 15 samples to qualify instrument performance. Metabolite assignments, isotopologue distributions, and correction for expected natural abundances of deuterium, ^13C, and ^15N isotopes were performed using MAVEN (Princeton, N.J., USA). The Q Exactive mass spectrometer (Thermo Fisher Scientific, San Jose, Calif., USA) was operated independently in positive or negative ion mode, scanning in Full MS mode (2 μscans) from 60 to 900 m/z at 70,000 resolution, with 4 kV spray voltage, 15 shealth gas, 5 auxiliary gas. Calibration was performed prior to analysis using the Pierce™ Positive and Negative Ion Calibration Solutions (Thermo Fisher Scientific). Acquired data was then converted from .raw to .mzXML file format using Mass Matrix (Cleveland, Ohio, USA). […] Importantly, the use of a standard processed blood unit is an improvement over previous experiments as this material directly represents a realistic storage strategy.

The test system of test [2] is red blood cells (RBC). Kind of test: Storage hemolysis: phosphate-conjugated carbohydrates and adenylates in the supernatant fraction of stored RBCs. The format is cell-based. Particulars: RBC-AS-3 stored at 4° C.; over storage duration; FIG. 6. As for the experimental part: RBC Storage: To ensure sterility, all storage conditions were set up and subsequently sampled in a biosafety cabinet. The RBC-AS-3 suspension was carefully removed from the bag into 3 ml aliquots inside 15 ml conical tubes. Stock concentrations (formulated in house-made AS-3) of ^13C5-Ado or d7-S1P were diluted to final concentrations of 0.1, 1, 10, and 100 μM for Ado or 1, 5, and 10 μM for S1P. Also included was a storage condition consisting of 10 Ado+5 μM S1P. […] The tubes were gently mixed and placed at 4° C. for storage. On days 2, 8, 11, 15, 22, 29, and 43, the tubes were placed back in a biosafety cabinet and 300 μl were sampled. The tubes were placed back at 4° C., and the samples were centrifuged for 10 minutes at 1500 g, 4° C. Supernatants were separated from cells and frozen until analysis (1st analysis after day 22 sampling). LC-MS Metabolomics: Metabolomics analyses were performed as previously described (Nemkov et al. (2015) Amino Acids doi:10.1007/s00726-015-2019-9; Nemkov et al. (2017) Rapid Commun. Mass Spectrom. 31, 663-673). Briefly, samples were placed on ice and diluted with 9 volumes of methanol:acetonitrile:water (5:3:2, v:v) for RBC, or with 24 volumes of methanol:acetonitrile:water (5:3:2, v:v) for supernatants. […] Samples were analyzed in randomized order with a technical mixture injected after every 15 samples to qualify instrument performance. […]

As for `Nc1ncnc2c1ncn2[C@@H]1O[C@H](CO)[C@@H](O)[C@H]1O` [Ado, adenosine], in the test on red blood cells (RBC) [1], the “amount of hypoxanthine in RBC and supernatants” value is “markedly decreased”; the “2,3-DPG levels” value was “higher 2,3-DPG levels through the first two weeks of storage”; the ATP production result is on record as “improved ATP production through the first week of storage”; the oxidized glutathione levels entry is reported as “lower”. For the same compound, in the test on red blood cells (RBC) [1], the reduced glutathione levels result is listed as “increased” and the “glycolytic activity as measured by the lactate-to-glucose ratio” value is on record as “higher glycolytic activity”. In addition, in the test on red blood cells (RBC) [2], the “levels of phosphate-conjugated carbohydrates and adenylates in supernatants (indicative of hemolysis)” value was “significantly lower”.
Consider `CCCCCCCCCCCCC/C=C/[C@@H](O)[C@@H](N)COP(=O)(O)O` [S1P, sphingosine 1-phosphate], for which, in the test on red blood cells (RBC) [1], the “amount of hypoxanthine in RBC and supernatants” value is listed as “markedly decreased”; the “2,3-DPG levels” value was “higher 2,3-DPG levels through the first two weeks of storage”; the ATP production result is recorded as “improved ATP production through the first week of storage”; the oxidized glutathione levels entry is on record as “lower”. In the test with red blood cells (RBC) [1], the reduced glutathione levels entry is “increased” and the “glycolytic activity as measured by the lactate-to-glucose ratio” value was “higher glycolytic activity”. In addition, the “levels of phosphate-conjugated carbohydrates and adenylates in supernatants (indicative of hemolysis)” value with red blood cells (RBC) [2] is recorded as “significantly lower”.
